From a melting point compilation (Tetko et al.; mined from patent text by program, amines drawn as free bases though some values may be those of a salt)

Row | SMILES | melting point [°C]
1 | Cc1ccc(S(=O)(=O)OCC2Cc3cc(C(F)(F)F)cc(Br)c3O2)cc1 (centres undefined) | 95 to 97
2 | O=c1c2c(Cl)cccc2nc(CSc2ncnc3[nH]cnc23)n1-c1ccccc1Cl | 234
3 | CCOc1ccc2nc(Cl)c(C=NOC)cc2c1 | 142 to 144
4 | COc1ccc(Oc2c(Cl)cc(-n3ncc(=O)[nH]c3=O)cc2Cl)cc1NS(=O)(=O)c1ccc(F)cc1 | 90 to 96
5 | COc1cc(OCCCN2CCc3cc(OC)c(OC)cc3C2)ccc1NC(=O)c1cccc2c(=O)c3cccc(F)c3[nH]c12 | 152
6 | O=S(=O)(F)c1cc2nc(Cl)c(Cl)nc2cc1Cl | 109 to 111
7 | CC(=O)Nc1cccc(-c2c(C)c(NC(=O)CC(C)(C)C)c(C)c3c2OCC3c2ccc(C(C)C)cc2)c1 (centres undefined) | 247 to 248
8 | COC(=O)c1ccc(OC)c(I)n1 | 175 to 178
9 | COc1cc2c(cc1OC)C(C(c1ccccc1)N1CCCCC1)OC2=O (centres undefined) | 213 to 214
10 | CCC(CC)C(=O)Nc1ccc2ncnc(NC=C(C(=O)OC)C(=O)OC)c2c1 | 221 to 225
11 | CC(=O)c1c(C)[nH]c(C2CCCC2)c1C | 162 to 164
12 | O=C1CCC(N2C(=O)c3cccc(NC(=O)Cc4ccccc4)c3C2=O)C(=O)N1 (centres undefined) | 217 to 218
13 | N#Cc1ccc2c(c1)C(=C(Cl)Cl)OC(C(Cl)(Cl)Cl)O2 (centres undefined) | 125 to 126
14 | NC(=O)c1nnn(Cc2ccc(C(=O)c3c(Cl)cccc3Cl)cc2)c1N | 165 to 167
15 | CC(C)c1[nH]n(-c2c(Cl)cncc2Cl)c2nc(Cc3ccc(CN4CCCC4)c(O)c3)nc(=O)c1-2 | 209
16 | Cc1ccc(C=NC2CCN(c3cc4c(cc3F)c(=O)c(C(=O)O)cn4-c3ccc(F)cc3)C2)cc1 (centres undefined) | 233 to 234
17 | CC(C)(C)Oc1ccc(C(=O)N[C@H]2CC[C@H](CCN3CCC(c4cccc5c4CCO5)CC3)CC2)cc1 | 216
18 | O=[N+]([O-])c1ccc(OC2OC(CO)C(O)C(OCc3ccccc3)C2O)cc1 (centres undefined) | 127
19 | O=C(NO)c1ccc(CNC(=O)c2[nH]c(-c3ccc(O)cc3)cc2-c2ccoc2)cc1 | 122 to 123
20 | O=c1n(CCCF)nnn1-c1cc(Oc2ccc([N+](=O)[O-])cc2)c(Cl)cc1F | 109 to 110
21 | CCCCOc1cccc(C[C@H](NC(=O)c2coc(NS(C)(=O)=O)n2)[C@H](O)CNCc2cccc(CC)c2)c1 | 78 to 80
22 | CN1CCCN(Cc2c(Cl)ccc(C(=O)C3=C(Sc4ccccc4)CCCC3=O)c2Cl)C1=O | 140

Row | SMILES | melting point [°C]
23 | CCC(=O)C1CN(C(c2ccccc2)c2ccccc2)C1 | 73 to 75
24 | CCOC(=O)c1ccc(NC(C)=O)c(CC(O)CO)c1 (centres undefined) | 114 to 116
25 | CC(C)(C)C(=O)C(=CC(=O)c1ccc(Cl)cc1)n1cncn1 | 140
26 | COc1cc2nc(N3CCC(N4C(=O)C(C)C(C)C4=O)CC3)nc(N)c2cc1OC (centres undefined) | 267 to 268
27 | CCC(CC)(CC(=O)Nc1cccc(/C=C/c2nc(C3CCC3)cs2)c1)C(=O)O | 170 to 172
28 | O=C1NCCSC1=NO | 233 to 235
29 | CCOC(=O)Oc1ccc(S(=O)(=O)N2c3cc(C(F)(F)F)ccc3-n3cccc3C2CC)cc1 (centres undefined) | 88 to 90
30 | N#Cc1cc(NCc2cc3c(cc2O)CCO3)cs1 | 138 to 139
31 | O=S1(=O)NCc2cccc(Cl)c21 | 159 to 161
32 | O=c1c2ccc(Cl)cc2[nH]c2c(O)nn(C3CCCc4ccccc43)c(=O)c12 (racemic) | > 300
33 | Cc1ccc([N+](=O)[O-])c(C(=O)N[C@@H]2c3cc(OC(F)(F)F)ccc3OC(C)(C)[C@H]2O)c1 | 185 to 187
34 | COC(=O)Cc1cc(NC(=O)OC(C)(C)C)c([N+](=O)[O-])cc1C#Cc1ccccc1 | 134
35 | CCOC(=O)c1ccc(C(=O)Nc2ccc3c(c2)N(C)C(=O)CCC3(C)C)cc1 | 174 to 175
36 | CO[C@@H]1CC[C@H](C(=O)O)Cc2onc(-c3ccc(Cl)cc3)c21 (relative stereo) | 168 to 170
37 | CC1OOC2(/C=C\c3ccc(C(F)(F)F)cc3C(F)(F)F)CC1CC(=O)C2C (centres undefined) | 124
38 | Cn1c(CC(=O)O)cc(Cl)c1C(=O)c1ccc(S(C)=O)cc1 (centres undefined) | 222 to 223
39 | CC12CC=CCC1CCC1C2CCC2(C)C(C(N)=O)CCC12 (centres undefined) | 199 to 202
40 | CSc1nn2c(N3CCN(Cc4ccccc4)CC3)cc(C)nc2c1S(=O)(=O)c1ccccc1 | 156 to 158
41 | N#Cc1cc(=O)n(-c2c(Cl)cc(C(F)(F)F)cc2Cl)[nH]1 | 198 to 201
42 | COc1ccc(CN2CCc3c(nc4ccc(OC)cc4c3-c3ccc(OC)cc3)C2=O)cc1 | 132 to 134
43 | Nc1ccc(CCNC(=O)C(F)(F)F)cc1 | 81 to 85
44 | Cc1cncc2c1C(=N)N(Cc1ccccc1)S2(=O)=O | 37 to 39

The next lines start with the values.

Row | melting point [°C] | SMILES
45 | 124 to 125 | Cn1nc(-c2ccccc2Cl)nc1-c1cccc([N+](=O)[O-])c1Cl
46 | 79 to 81.5 | CC1(C)C(c2ccc(S(C)(=O)=O)cc2)=C(c2ccccc2)C1F (centres undefined)
47 | 198 to 201 | NC(=S)Nc1cc(-c2ccccc2)nn1-c1ccccc1
48 | 209 to 210 | c1ccc(Nc2csc(-c3cn[nH]c3)n2)nc1
49 | 52 to 53 | N#Cc1ncccc1COc1cccc(F)c1
50 | 250 | Cc1ccnc(Nc2nc(-c3c[nH]nc3C(O)c3ccccc3)cs2)n1 (centres undefined)
51 | 157 to 158 | CNC(=O)CC1CN=C(c2cc3cc(Oc4ccc(CS(C)(=O)=O)nc4)cc(OC4CCOCC4)c3[nH]2)S1 (centres undefined)
52 | 75.5 to 76.5 | COC(=O)C(C)(C)CCCOc1cc(C)c(OCc2ccccc2)cc1C
53 | 176 to 177 | Nc1ccc(S(=O)(=O)Nn2cc(-c3ccccc3)c3ccccc32)cc1
54 | 70 to 71 | Cc1cc2ccc(Cl)c(Cl)c2[nH]1
55 | 50 to 55 | OCCC1(c2ccccn2)CCNC1 (centres undefined)
56 | 108 to 109 | CCc1noc(-c2cn(-c3cccc(Oc4ccccc4)c3)cn2)n1
57 | 68 to 69 | CSCCN(C)C(=O)N(C)c1cnc(-c2cncc(F)c2)s1
58 | 225 to 228 | COc1c(-c2cccs2)ccc2c(OC)c(-c3cccs3)ccc12
59 | 117 to 120 | CCCNc1ncnc2c1ncn2Cc1ccc(OC)c(OC)c1
60 | 168 to 170 | CC1(C)CN2C(=O)c3ccccc3C(O)(c3ccc(F)cc3)C2=N1 (centres undefined)
61 | 143 to 145 | CS(=O)(=O)c1ccc(-c2cc(C(=O)CCCO)nn2-c2ccccc2)cc1
62 | 184 to 186 | NC1=NN(c2ccccc2)C(c2ccc(Cl)cc2)C1 (centres undefined)
63 | 260 to 265 | O=c1c2ccccc2sc2c(O)ccc(Cl)c12
64 | 94 to 96 | Nc1sc2c(c1C(=O)c1ccc3ccccc3c1)CCN(Cc1ccc(F)cc1)C2
65 | 134 to 136 | CCCCOc1cc(CCC(=O)O)ccc1-c1cccc(N(C)C(=O)Nc2ccccc2)c1
66 | 202 | CCOC(c1cccc2cccnc12)n1c(NC2CCN(C(CN)C(C)C)CC2)nc2ccccc21 (centres undefined)
67 | 107 to 108 | O=C(NCCO)c1cc(F)cc(-c2ccc(F)c3cc(Cc4cccc(C(F)(F)F)c4)sc23)c1
68 | 61 to 62 | CCOC(=O)CCC(O)c1ccc(-c2ccccc2F)cc1 (centres undefined)
69 | 148 to 150 | OCCCCOc1ccc2cc(O)ccc2c1
